# Laboratory results as given in ChEMBL document CHEMBL1201862, “PubChem BioAssay data set” (2004).
# Active and inactive are the calls of the source.
# Legend:
# [1] = target: T1, Low molecular weight phosphotyrosine protein phosphatase (Homo sapiens, UniProt P24666); type: functional; settings: read-out: IC50_Mean
# T1 sequence (P24666 whole entry): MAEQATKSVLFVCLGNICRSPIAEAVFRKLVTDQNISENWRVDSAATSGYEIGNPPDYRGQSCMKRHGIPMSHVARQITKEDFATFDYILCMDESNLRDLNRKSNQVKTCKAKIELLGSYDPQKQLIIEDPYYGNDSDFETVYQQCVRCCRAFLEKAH
# [2] = target: T1, Low molecular weight phosphotyrosine protein phosphatase; type: functional; settings: read-out: IC50_Mean; remark: listed apart in the source
# [3] = target: T2, Rac GTPase-activating protein 1 (Homo sapiens, UniProt Q9H0H5); assay: blockers of MgcRacGAP-driven Rac1 GTP hydrolysis – biochemical, ADP Hunter fluorescence, primary and confirmatory, confirmation (AID 624330); type: functional
# T2 sequence (Q9H0H5 whole entry): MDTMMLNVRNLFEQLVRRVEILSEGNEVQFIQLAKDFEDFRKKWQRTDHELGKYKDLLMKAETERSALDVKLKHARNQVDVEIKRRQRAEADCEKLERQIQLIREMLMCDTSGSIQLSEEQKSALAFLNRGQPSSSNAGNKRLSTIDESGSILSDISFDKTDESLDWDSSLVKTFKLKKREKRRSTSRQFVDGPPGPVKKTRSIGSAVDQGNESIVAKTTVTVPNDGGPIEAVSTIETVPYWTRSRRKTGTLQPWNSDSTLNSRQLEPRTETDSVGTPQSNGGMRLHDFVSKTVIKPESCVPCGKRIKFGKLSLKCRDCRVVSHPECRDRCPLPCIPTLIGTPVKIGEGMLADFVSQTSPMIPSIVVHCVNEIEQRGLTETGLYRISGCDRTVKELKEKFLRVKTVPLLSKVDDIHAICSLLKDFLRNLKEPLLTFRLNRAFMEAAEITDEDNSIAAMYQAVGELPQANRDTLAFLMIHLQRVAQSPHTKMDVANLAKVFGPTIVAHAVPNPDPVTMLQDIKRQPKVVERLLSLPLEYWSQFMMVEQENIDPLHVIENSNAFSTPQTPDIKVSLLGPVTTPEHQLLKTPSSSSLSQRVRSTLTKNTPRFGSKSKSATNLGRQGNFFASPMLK
# [4] = viability loss in HeLa cells – cytotoxicity control for MgcRacGAP inhibitor project, dose response (AID 624300); type: functional
# [5] = NIH3T3 cell viability loss – ATP luminescence, mouse fibroblasts, counter-screen, dose response (AID 2010); type: functional, cell-based;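 further: cells exposed to compound for about 90 hours before reading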
# [6] = target: T3, Ubiquitin-conjugating enzyme E2 N (Homo sapiens, UniProt P61088); type: functional;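 further: Dose-response confirmation in a TR-FRET assay detecting UBC13-driven polyubiquitin chain formation, inhibition measured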
# T3 sequence (P61088 whole entry): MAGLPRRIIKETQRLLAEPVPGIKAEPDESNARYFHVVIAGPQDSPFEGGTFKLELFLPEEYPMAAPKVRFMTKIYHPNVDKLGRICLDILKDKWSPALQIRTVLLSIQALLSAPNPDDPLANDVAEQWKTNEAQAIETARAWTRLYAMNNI
# [7] = Trypanosoma cruzi growth suppression in host cells – NIH3T3 host cells, beta-gal luminescence, confirmation (AID 2044); type: functional, cell-based;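 further: intracellular parasites grown in NIH/3T3 mouse fibroblasts as host cells; luminescent beta-galactosidase reporter signal from transgenic T. cruzi replicating inside host cells; inhibitors lower the luminescence signal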
# [8] = microbe, parasite or virus in culture; type: functional; settings: Mycobacterium tuberculosis
# Fatty acid synthase [9] = target: T4, Fatty acid synthase (Homo sapiens, UniProt P49327); assay: inhibition of human FAS-TE enzyme activity – biochemical, kinetic fluorescence intensity, dose response (AID 624326); type: functional;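 further: rate of fluorescence rise from hydrolysis of a fluorogenic O-methyl fluorescein ester substrate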
# T4 sequence (P49327 whole entry): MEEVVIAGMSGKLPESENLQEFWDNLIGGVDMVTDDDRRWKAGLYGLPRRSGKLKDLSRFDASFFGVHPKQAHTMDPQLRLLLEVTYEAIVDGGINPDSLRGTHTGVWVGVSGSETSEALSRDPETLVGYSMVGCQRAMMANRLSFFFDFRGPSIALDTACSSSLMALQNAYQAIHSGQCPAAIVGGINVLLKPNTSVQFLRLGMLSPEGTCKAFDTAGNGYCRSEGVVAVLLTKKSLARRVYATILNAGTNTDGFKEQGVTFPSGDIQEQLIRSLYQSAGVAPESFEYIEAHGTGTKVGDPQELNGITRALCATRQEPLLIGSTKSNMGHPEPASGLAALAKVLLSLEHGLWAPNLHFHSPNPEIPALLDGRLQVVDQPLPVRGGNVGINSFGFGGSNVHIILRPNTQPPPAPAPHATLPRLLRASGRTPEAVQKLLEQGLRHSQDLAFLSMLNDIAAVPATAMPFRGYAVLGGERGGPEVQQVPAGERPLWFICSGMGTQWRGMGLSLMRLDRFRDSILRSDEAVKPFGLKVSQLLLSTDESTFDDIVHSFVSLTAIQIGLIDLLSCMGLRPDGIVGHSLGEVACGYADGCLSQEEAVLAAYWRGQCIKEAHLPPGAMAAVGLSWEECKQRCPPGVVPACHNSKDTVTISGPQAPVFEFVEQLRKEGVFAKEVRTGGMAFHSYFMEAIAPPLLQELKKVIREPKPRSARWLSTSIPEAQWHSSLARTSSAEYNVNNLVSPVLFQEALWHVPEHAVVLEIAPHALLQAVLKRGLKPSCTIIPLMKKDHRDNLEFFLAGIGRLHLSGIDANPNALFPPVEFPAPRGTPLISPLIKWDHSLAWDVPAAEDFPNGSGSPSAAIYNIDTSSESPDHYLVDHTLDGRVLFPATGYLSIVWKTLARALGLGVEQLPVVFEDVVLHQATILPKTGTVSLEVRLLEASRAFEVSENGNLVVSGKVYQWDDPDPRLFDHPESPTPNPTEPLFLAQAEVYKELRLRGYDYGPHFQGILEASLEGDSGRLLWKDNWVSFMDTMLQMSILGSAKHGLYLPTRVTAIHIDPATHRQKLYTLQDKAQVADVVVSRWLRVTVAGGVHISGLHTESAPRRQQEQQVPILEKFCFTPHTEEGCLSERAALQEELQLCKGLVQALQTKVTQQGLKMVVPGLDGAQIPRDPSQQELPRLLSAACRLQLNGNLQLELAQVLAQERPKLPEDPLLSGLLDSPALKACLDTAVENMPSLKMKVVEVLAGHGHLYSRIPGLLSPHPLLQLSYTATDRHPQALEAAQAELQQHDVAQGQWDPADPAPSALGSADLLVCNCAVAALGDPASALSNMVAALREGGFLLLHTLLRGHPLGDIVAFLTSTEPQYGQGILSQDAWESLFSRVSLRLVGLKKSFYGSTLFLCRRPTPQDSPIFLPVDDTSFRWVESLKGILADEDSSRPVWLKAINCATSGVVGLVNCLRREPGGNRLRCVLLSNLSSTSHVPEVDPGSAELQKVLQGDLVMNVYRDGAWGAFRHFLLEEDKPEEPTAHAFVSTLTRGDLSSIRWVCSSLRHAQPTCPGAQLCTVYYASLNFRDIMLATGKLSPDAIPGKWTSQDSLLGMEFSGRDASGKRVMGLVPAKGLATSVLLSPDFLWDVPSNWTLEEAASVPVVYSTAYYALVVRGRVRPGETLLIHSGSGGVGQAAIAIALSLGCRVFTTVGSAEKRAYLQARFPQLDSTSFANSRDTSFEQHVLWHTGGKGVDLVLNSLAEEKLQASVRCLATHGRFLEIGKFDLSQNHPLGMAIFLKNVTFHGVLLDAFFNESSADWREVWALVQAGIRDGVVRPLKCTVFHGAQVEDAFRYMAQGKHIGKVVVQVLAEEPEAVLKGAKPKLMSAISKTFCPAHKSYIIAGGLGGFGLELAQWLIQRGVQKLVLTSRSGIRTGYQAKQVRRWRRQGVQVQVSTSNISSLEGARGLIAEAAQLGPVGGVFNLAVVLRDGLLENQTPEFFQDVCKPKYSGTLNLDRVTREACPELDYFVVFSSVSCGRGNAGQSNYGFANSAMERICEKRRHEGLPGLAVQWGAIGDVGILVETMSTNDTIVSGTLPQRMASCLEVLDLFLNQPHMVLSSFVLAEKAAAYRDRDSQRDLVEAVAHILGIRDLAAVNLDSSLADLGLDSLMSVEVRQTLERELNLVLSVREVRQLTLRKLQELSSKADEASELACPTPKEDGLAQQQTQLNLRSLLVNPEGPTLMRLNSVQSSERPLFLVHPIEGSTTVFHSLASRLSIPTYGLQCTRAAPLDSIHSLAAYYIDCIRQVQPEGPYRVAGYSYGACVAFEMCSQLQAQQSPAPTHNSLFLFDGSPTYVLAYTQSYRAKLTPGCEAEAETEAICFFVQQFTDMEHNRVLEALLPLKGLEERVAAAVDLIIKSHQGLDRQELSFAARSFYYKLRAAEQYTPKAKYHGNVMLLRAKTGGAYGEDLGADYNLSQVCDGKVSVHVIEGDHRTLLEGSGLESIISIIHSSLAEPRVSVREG
# Fatty acid synthase [10] = target: T4, Fatty acid synthase; assay: inhibition of human FAS-TE enzyme activity – biochemical, endpoint fluorescence intensity, uHTS hits, dose response (AID 624327); type: functional;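 further: fluorescence from hydrolysis of an O-methyl fluorescein acyl ester substrate by the enzyme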
# [11] = target: Photoreceptor-specific nuclear receptor (Homo sapiens, UniProt Q9Y5X4); type: functional, cell-based;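 further: CHO-S cells with Gal4-NCOR and VP16-NR2E3 two-hybrid luciferase reporter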
# Chain of Photoreceptor-specific nuclear receptor (Q9Y5X4 whole entry, the tested form may be a part): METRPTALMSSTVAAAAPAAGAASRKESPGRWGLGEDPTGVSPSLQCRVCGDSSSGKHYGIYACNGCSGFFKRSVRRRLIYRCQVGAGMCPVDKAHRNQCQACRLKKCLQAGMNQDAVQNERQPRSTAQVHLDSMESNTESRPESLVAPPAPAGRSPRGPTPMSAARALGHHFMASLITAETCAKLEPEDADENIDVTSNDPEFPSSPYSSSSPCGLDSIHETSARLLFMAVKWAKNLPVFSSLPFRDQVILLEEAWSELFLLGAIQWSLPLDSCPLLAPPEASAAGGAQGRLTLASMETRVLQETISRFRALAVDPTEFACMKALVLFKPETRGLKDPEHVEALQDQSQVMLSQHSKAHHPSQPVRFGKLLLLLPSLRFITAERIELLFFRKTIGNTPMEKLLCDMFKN
# [12] = loss of viability in HepG2 cells – cell-based, CellTiter-Glo, cherry-picked, cytotoxicity control for Shn3 inhibitor project, dose response (AID 624134); type: functional
# [13] = non-specific 3'UTR reporter inhibition in Clone20-Shn3RL – cell-based, Renilla luciferase, cherry-picked, counter-screen for Shn3 inhibitor project, dose response (AID 624133); type: functional
# [14] = reduction of Shn3 3'UTR-driven luciferase in osteoblasts – cell-based, Clone20 osteoblasts, firefly luciferase, cherry-picked, dose response (AID 624132); type: functional;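 further: firefly luciferase luminescence from reporter carrying the Shn3 3'UTR in osteoblasts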
# Streptokinase A = target: T5, Streptokinase A (Streptococcus pyogenes serotype M1, UniProt P10520); assay: viability-normalized secreted streptokinase activity reduction – plasminogen activation absorbance, OD405, dose response (AID 1914); type: functional, Streptococcus pyogenes M1 GAS;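 further: secreted streptokinase activity via plasminogen activation per viability signal from cell pellet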
# T5 sequence (P10520 whole entry): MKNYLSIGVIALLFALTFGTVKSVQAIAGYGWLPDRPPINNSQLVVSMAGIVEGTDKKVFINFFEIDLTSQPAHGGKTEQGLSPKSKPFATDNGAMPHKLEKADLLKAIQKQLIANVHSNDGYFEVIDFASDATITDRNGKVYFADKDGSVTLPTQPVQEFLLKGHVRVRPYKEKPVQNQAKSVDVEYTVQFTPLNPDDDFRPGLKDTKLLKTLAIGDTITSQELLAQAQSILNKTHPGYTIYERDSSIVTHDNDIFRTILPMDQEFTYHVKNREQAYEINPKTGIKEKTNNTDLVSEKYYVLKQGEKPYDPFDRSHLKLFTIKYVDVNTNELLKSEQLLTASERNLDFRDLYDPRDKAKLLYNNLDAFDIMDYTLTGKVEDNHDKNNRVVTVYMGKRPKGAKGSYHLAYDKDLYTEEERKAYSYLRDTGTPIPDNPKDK
# Streptococcus = assay: GAS UMAA2166 growth inhibition – luminescence, BacTiterGlo, counter-screen for streptokinase expression inhibitor project, dose response (AID 1915); type: functional, organism-based;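 further: potency for reduction of bacterial viability or growth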
# [15] = target: T6, Small ubiquitin-related modifier 1 (Homo sapiens, UniProt P63165); assay: SUMO1 protein interaction blockers, potency – biochemical, fluorescence polarization, uHTS hits, dose response (AID 624382); type: functional; settings: read-out: IC50_Mean
# T6 sequence (P63165 whole entry): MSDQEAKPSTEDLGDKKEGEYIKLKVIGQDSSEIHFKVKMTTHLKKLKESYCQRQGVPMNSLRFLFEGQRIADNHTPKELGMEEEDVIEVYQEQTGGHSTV
# [16] = system: Streptococcus sp. 'group A'; assay: Streptococcus pyogenes SK(-)GAS viability under kanamycin – luminescence, BacTiterGlo, confirmation, counter-screen for streptokinase expression inhibitor project, dose response (AID 1900); type: functional, organism-based
# [17] = target: T6, Small ubiquitin-related modifier 1; assay: SUMO1 protein-protein binding blockers, potency – biochemical, FRET, dose response (AID 624383); type: functional; settings: read-out: IC50_Mean
# [18] = target: T7, Histone-lysine N-methyltransferase NSD2 (Homo sapiens, UniProt O96028); type: biochemical
# T7 sequence (O96028 whole entry): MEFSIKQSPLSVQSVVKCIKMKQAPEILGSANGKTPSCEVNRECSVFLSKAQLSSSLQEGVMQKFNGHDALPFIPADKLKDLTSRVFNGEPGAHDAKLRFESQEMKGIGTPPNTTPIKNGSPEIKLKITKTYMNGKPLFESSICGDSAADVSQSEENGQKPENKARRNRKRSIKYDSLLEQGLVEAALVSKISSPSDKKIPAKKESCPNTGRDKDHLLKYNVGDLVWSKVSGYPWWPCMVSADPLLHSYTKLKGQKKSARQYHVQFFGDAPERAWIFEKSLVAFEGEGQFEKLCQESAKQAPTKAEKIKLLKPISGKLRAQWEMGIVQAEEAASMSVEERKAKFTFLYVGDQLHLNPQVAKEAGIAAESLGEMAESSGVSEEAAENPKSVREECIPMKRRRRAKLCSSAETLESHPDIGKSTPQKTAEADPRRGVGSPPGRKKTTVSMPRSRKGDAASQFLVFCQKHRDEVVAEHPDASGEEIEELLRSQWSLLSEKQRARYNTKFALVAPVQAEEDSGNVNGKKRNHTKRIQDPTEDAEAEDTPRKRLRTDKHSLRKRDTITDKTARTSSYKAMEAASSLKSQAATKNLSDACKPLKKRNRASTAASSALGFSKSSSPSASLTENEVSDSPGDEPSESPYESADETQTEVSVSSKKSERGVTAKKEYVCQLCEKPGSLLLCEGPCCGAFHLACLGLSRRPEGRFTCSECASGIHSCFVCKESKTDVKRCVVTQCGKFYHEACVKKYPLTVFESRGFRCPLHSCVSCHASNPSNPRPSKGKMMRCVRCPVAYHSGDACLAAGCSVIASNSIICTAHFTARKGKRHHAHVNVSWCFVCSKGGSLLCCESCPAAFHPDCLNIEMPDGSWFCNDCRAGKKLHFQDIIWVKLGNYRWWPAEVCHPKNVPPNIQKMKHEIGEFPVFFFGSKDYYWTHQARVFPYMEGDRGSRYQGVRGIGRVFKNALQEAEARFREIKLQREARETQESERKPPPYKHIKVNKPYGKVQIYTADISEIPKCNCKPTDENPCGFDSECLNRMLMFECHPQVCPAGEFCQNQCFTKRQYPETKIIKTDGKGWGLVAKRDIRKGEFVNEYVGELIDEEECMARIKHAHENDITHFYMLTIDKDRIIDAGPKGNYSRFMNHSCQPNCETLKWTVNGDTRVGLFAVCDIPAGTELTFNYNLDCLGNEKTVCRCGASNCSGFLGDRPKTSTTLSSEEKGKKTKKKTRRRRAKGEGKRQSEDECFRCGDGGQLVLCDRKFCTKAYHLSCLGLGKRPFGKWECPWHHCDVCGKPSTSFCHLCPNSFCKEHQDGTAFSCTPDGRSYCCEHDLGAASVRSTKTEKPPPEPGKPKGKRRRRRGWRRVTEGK
# [19] = target: Induced myeloid leukemia cell differentiation protein Mcl-1 (Homo sapiens, UniProt Q07820); type: functional
# Chain of Induced myeloid leukemia cell differentiation protein Mcl-1 (Q07820 whole entry): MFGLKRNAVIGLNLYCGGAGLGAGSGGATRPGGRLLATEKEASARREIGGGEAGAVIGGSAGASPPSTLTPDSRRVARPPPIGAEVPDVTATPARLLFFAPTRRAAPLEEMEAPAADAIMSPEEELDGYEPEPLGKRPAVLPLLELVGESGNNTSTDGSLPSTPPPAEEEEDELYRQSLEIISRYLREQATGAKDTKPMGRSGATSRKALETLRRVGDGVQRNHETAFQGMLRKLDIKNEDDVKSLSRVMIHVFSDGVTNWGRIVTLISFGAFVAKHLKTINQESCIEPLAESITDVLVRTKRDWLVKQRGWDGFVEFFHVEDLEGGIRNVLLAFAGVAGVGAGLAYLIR
# [20] = target: DNA (cytosine-5)-methyltransferase 1 (Homo sapiens, UniProt P26358); assay: inhibition of DNA methylation by DNMT1 – biochemical, fluorescent molecular beacon, confirmation (AID 602386); type: functional
# Large T antigen = Large T antigen (Simian virus 40, UniProt P03070); type: functional, Betapolyomavirus macacae;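 further: Confirmatory-stage PubChem screen for compounds that inhibit SV40 T antigen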
# Chain of Large T antigen (P03070 whole entry): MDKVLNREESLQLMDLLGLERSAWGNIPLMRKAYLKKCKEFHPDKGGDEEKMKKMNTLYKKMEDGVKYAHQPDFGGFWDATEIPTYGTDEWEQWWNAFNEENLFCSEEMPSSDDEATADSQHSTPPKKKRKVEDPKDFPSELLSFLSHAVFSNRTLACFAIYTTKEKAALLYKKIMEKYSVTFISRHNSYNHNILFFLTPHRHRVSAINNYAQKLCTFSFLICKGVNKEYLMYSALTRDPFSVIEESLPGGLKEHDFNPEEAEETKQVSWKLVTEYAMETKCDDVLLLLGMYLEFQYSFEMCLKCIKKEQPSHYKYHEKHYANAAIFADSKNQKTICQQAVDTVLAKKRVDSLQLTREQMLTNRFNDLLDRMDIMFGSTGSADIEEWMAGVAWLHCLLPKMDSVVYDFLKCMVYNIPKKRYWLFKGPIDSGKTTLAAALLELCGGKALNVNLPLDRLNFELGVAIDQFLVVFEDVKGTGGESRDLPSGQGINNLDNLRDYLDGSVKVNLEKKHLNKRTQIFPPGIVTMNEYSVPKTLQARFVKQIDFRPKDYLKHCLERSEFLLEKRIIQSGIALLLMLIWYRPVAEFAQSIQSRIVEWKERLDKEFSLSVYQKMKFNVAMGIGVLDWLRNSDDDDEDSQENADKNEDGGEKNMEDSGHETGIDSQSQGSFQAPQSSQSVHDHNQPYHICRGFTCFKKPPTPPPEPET
# Beta-lactamase [21] = target: Beta-lactamase (Salmonella choleraesuis (strain SC-B67), UniProt Q5J463); assay: Epi-absorbance-based counterscreen for selective VIM-2 inhibitors: dose response biochemical high throughput screening assay to identify inhibitors of TEM-1 serine-beta-lactamase.
# Chain of Beta-lactamase (Salmonella choleraesuis (strain SC-B67), UniProt Q5J463) (Q5J463 whole entry): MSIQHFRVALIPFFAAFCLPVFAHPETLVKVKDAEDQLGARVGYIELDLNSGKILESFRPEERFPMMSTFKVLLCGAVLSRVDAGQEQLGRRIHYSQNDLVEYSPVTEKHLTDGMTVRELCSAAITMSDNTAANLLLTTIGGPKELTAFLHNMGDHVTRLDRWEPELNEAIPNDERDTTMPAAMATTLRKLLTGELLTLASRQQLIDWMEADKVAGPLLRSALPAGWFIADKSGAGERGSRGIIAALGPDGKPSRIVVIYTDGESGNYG
# Beta-lactamase [22] = target: T8, Beta-lactamase (Pseudomonas aeruginosa, UniProt Q79MP6); assay: […] counterscreen for selective VIM-2 inhibitors: dose response biochemical high throughput screening assay to identify inhibitors of IMP-1 metallo-beta-lactamase.
# T8 sequence (Q79MP6 whole entry): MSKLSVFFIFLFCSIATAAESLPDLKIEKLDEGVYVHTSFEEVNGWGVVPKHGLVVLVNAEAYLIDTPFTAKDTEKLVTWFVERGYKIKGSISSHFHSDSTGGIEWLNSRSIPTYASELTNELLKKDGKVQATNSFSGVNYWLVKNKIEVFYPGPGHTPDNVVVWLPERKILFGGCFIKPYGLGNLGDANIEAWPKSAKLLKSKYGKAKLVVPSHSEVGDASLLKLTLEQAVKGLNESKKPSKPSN
# Beta-lactamase [23] = target: T8, Beta-lactamase; assay: inhibition of IMP-1 beta-lactamase activity – biochemical, epi-absorbance, selectivity assay for VIM-2 inhibitor project, dose response (AID 1920)
smiles,measurement,setting,value
CC(C)OCCCNc1nc(-c2ccccc2)nc2ccccc12,IC50,[1],22.9 µM (inactive)
same,IC50,[2],11.7 µM (active)
CCOC(=O)c1c(C)n(-c2ccc(C)cc2)c2ccc(OCC(O)CNCC3CCCO3)cc12 (configuration not stated),IC50,[3],131 µM (active)
same,CC50,[4],39.7 µM (active)
same,EC50,[5],> 60 µM (not active)
same,IC50,[6],> 20 µM (inactive)
same,EC50,[7],1.51 µM (active)
same,CC50,[8],13.2 µM (active)
O=[N+]([O-])c1ccc(S(=O)(=O)N/N=C/c2ccc3c(c2)OCO3)cc1,IC50,Fatty acid synthase [9],5.36 µM (active)
same,IC50,Fatty acid synthase [10],5.55 µM (active)
Cc1cc(=O)n2nc(-c3ccc(C(C)(C)C)cc3)cc2[nH]1,IC50,Fatty acid synthase [9],15 µM (active)
same,EC50,[5],> 60 µM (not active)
same,IC50,Fatty acid synthase [10],9.51 µM (active)
same,EC50,[7],0.646 µM (active)
NS(=O)(=O)c1ccc(CCNc2nn3c(-c4cccc(OC(F)(F)F)c4)cnc3s2)cc1,IC50,[11],6.96 µM (active)
same,AC50,[12],52.5 µM (active)
same,AC50,[13],0.852 µM (active)
same,AC50,[14],3.93 µM (active)
COc1ccc(-c2csc(NC(=S)NC(=O)c3cccs3)n2)cc1OC,EC50,Streptokinase A,> 150 µM (not active)
same,EC50,Streptococcus,74.3 µM (active)
same,IC50,[15],> 66.6 µM (inactive)
same,EC50,[16],23.4 µM (active)
same,IC50,[17],7.27 µM (active)
CCCCN1C(=O)/C(=C/C=C/c2ccco2)C(=O)NC1=S,AC50,[18],4.72 µM (active)
same,IC50,[19],2.18 µM (active)
same,IC50,[20],3.39 µM (active)
same,IC50,Large T antigen,7.95 µM (active)
C#Cc1cccc(Nc2nc(NCc3ccccc3)nc3ccsc23)c1,IC50,[11],7.02 µM (active)
CC(C)C[C@@H](CNCC(=O)[C@H](Cc1ccccc1)NC(=O)c1nc[nH]c1C(=O)N[C@H](CN)CC(C)C)NC(=O)c1[nH]cnc1C(=O)N[C@@H](CC(=O)O)C(=O)O,IC50,[15],> 66.6 µM (inactive)
same,IC50,[17],20.4 µM (inactive)
CC(C)Oc1ccc(Cc2nnc(S)n2Cc2ccccc2)cc1Cl,IC50,Fatty acid synthase [9],6.09 µM (active)
same,IC50,Fatty acid synthase [10],6.4 µM (active)
Nc1nc(N)c(Cc2ccc(Cl)cc2Cl)c(N)n1,IC50,[1],11.9 µM (active)
same,IC50,[2],7.44 µM (active)
CC(=O)Nc1cc(O)c2cccnc2n1,IC50,[1],38.7 µM (inactive)
same,IC50,[2],25.9 µM (inactive)
Cc1n[nH]c(C)c1CCCCOc1ccc([N+](=O)[O-])cc1,IC50,Beta-lactamase [21],> 59.6 µM (inactive)
same,IC50,Beta-lactamase [22],> 59.6 µM (inactive)
same,IC50,Beta-lactamase [23],> 59.6 µM (inactive)
Cc1c(C)c2ccc(OCC(=O)N3CCC[C@@H]3C(=O)O)c(C)c2oc1=O,IC50,Beta-lactamase [21],> 59.6 µM (inactive)
same,IC50,Beta-lactamase [22],> 59.6 µM (inactive)
same,IC50,Beta-lactamase [23],> 59.6 µM (inactive)
